For assay [1], the system named is hESCs and hESC-derived NSCs. The assay is described as follows: Comparative ATP screening on hESCs and hESC-derived NSCs (ratio ESC/NSC or NSC/ESC). Also on record: hit class in primary screen / ESC/NSC: dose or concentration left out as unconfirmed. To be noted: for hit class in primary screen: NINDS primary screen, ATP relative to DMSO controls.
From the text: Hits were defined based on the ability of a compound to affect ATP levels relative to DMSO controls on each plate.
For another assay, the system named is hESC-derived NSCs. The assay is described as follows: ATP assay in hESC-derived NSCs (96-well, primary screen and retest). To be noted: for toxicity to NSCs (reduced ATP concentrations): 1 (unit uncertain), 2.5 (unit uncertain) and 10 (unit uncertain), treated NSCs versus untreated NSCs, untreated and treated hESCs. The format is cell-based, human. Also noted: cytotoxicity: dose or concentration left out as unconfirmed; toxicity to NSCs (reduced ATP concentrations) / ATP levels in NSC population: unit of the concentration uncertain. How it is done:
EBs were then cultured for additional 2-3 days in suspension in neural induction media containing DMEM/F12 with Glutamax, 1×NEAA, 1×N2 and FGF2 (20 ng/ml) prior to attachment on cell culture plates. […] To obtain a pure population of NSCs, rosettes were manually isolated and dissociated into single cells using Accutase. The NSCs population was expanded in Neurobasal media containing 1×NEAA, 1×L-Glutamine (2 mM), 1×B27, LIF and FGF2 20 ng/ml.
Media was changed every day for hESCs and every other day for NSCs and additionally changed prior to drug treatment. The cells were treated with compounds from the NINDS library diluted in […] of either ESC or NSC media to a final concentration of 2.5 mM in 0.01% DMSO. […] For all sampling, ESC and NSC plates were processed in parallel for one drug or control condition at a time.
For ATP measurements, the media was removed, cells were washed 1× in milliQ water and reconstituted in […] ATP-Lite Mammalian Lysis Buffer and shaken for 5 minutes. Two […] aliquots of lysed cells were replated onto separate 96 well plates for later protein measurements.
To identify compounds that are toxic to hESCs, hESC-derived NSCs, or both, we screened 720 FDA-approved drugs of the NINDS collection by testing the toxicity of each drug at a dose of 2.5 mM. For endpoint measurement of cell death caused by drug toxicity, we used a widely accepted ATP assay that measures changes in ATP level as an indicator of cellular response to cell death. In this assay, total ATP content per well was measured and normalized to the total cellular protein.
Three concentrations of each compound (1 mM, 2.5 mM and 10 mM) were used in the retest.

[2] abbreviates: Prestwick screening data, group: Toxic To NSC (and not ESCs).
Where [3] appears, read: NINDS screening data, […], ATP assay, 48 hours.
[4] abbreviates: Homo sapiens, NINDS primary screen, 48 hours, read-out: NSC ATP values below the control mean.
Setting [5] is: Prestwick screening data, group: Toxic To ESCs (and not NSCs).
Where [6] appears, read: Prestwick screening data, group: Toxic to both but (5x) more toxic to ESCs.

Structures can show the parent of a compound that is named as a salt. Where two headings read alike, the source gives them in different places.

Turning to `O=c1[nH]c(=O)n([C@H]2C[C@H](O)[C@@H](CO)O2)cc1C(F)(F)F` [Trifluridine], the ESC/NSC in assay [1] (setting [2]) turned out to be 2.955.

Consider `C[n+]1cc2c3c(ccc2c2ccc4cc5c(cc4c21)OCO5)OCO3` [Sanguinarine Nitrate], for which the ESC/NSC in assay [1] (setting [3]) came out at 8.446.

Take `CC(C)(C)CC(C)(C)c1ccc(O)c(Cc2ccc(Cl)cc2Cl)c1` [Clofoctol]: the “hit class in primary screen” value in assay [1] is “NSC Killers”. Besides, the cytotoxicity in the assay with hESC-derived NSCs (setting [4]) was at least 15%. Also, in the assay on hESC-derived NSCs (retest), the “toxicity to NSCs (reduced ATP concentrations)” value is “dose-dependent specific toxicity”.

Take `COC1=CC(=O)C[C@@H](C)[C@]12Oc1c(Cl)c(OC)cc(OC)c1C2=O` [griseofulvin]: the “hit class in primary screen” value in assay [1] is given as “NSC Killers”. The cytotoxicity with hESC-derived NSCs (setting [4]) is at least 15%.

For `CCC(=O)O[C@]1(C(=O)SCF)[C@H](C)C[C@H]2[C@@H]3C[C@H](F)C4=CC(=O)C=C[C@]4(C)[C@@]3(F)[C@@H](O)C[C@@]21C` [Fluticasone Propionate], in assay [1] (setting [5]), the NSC/ESC came to 1.954.

With `COc1ccc2c(c1OC)CN1CCc3cc4c(cc3C1C2)OCO4` (stereo not shown) [(D,L)-Tetrahydroberberine], the NSC/ESC in assay [1] (setting [5]) turned out to be 2.336.

On to `CCc1nc(N)nc(N)c1-c1ccc(Cl)cc1` [Pyrimethamine], for which, in assay [1] (setting [2]), the ESC/NSC was 2.009.

`CC(=O)O[C@H]1C(=O)[C@@]2(C)[C@H]([C@H](OC(=O)c3ccccc3)[C@]3(O)C[C@H](OC(=O)[C@H](O)[C@@H](NC(=O)c4ccccc4)c4ccccc4)C(C)=C1C3(C)C)[C@]1(OC(C)=O)CO[C@@H]1C[C@@H]2O` [Paclitaxel]: the NSC/ESC in assay [1] (setting [6]) came out at 5.325.

As to `CCCCCCCCCCCCCCCC[N+](C)(C)C.[Br-]` [Cetrimonium Bromide], the ESC/NSC in assay [1] (setting [3]) was found to be 5.402.

Turning to `CC1(C)O[C@@H]2C[C@H]3[C@@H]4C[C@H](F)C5=CC(=O)CC[C@]5(C)[C@H]4[C@@H](O)C[C@]3(C)[C@]2(C(=O)CO)O1` [Flurandrenolide], the NSC/ESC in assay [1] (setting [5]) is listed as 2.308.

In the case of `C[C@@]12C(=O)OC(=O)[C@]1(C)[C@H]1CC[C@@H]2O1` [Cantharidin], in assay [1] (Prestwick screening data, group: Toxic to both but (>5x) more toxic to NSCs), the ESC/NSC turned out to be 6.171.

Turning to (−)-Levobunolol Hydrochloride, the NSC/ESC in assay [1] (setting [5]) came out at 1.689.

Regarding `C[C@H]1CC[C@]2(NC1)O[C@H]1C[C@H]3[C@@H]4CC[C@H]5C[C@@H](O[C@@H]6O[C@H](CO)[C@H](O[C@@H]7O[C@H](CO)[C@@H](O)[C@H](O[C@@H]8OC[C@@H](O)[C@H](O)[C@H]8O)[C@H]7O[C@@H]7O[C@H](CO)[C@@H](O)[C@H](O)[C@H]7O)[C@H](O)[C@H]6O)CC[C@]5(C)[C@H]4CC[C@]3(C)[C@H]1[C@@H]2C` [Tomatine], the ESC/NSC in assay [1] (Prestwick screening data, […]) was 9.242.

As to `Cl.Cl.c1ccc2c3c([nH]c2c1)C1C2CCC(C4CCCNC42)N1CC3` (stereo not shown) [Nitrarine Dihydrochloride], in assay [1] (setting [5]), the NSC/ESC worked out at 1.949.

On to `CO[C@H]1C[C@H](O[C@@H]2/C(C)=C/C[C@@H]3C[C@@H](C[C@]4(CC[C@H](C)[C@@H](C5CCCCC5)O4)O3)OC(=O)[C@@H]3C=C(C)/C(=N/O)[C@H]4OC/C(=C\C=C\[C@@H]2C)[C@]43O)O[C@@H](C)[C@@H]1O` [Selamectin], for which, in assay [1], the “hit class in primary screen” value was “NSC Killers”. Further, in the assay with hESC-derived NSCs (Homo sapiens, NINDS primary screen, 2.5 mM, 48 hours, read-out: NSC ATP values below the control mean), the cytotoxicity at 2500 µM is at least 15%. Besides, the “toxicity to NSCs (reduced ATP concentrations)” value with hESC-derived NSCs (retest) was “dose-dependent specific toxicity”. The “effect on NSC survival among dose responsive compounds” value in the assay with hESC-derived NSCs (retest, FIG. 2 panel B) is “most dramatic effect on NSC survival”.

For `C1CCC(C(CC2CCCCN2)C2CCCCC2)CC1.O=C(O)/C=C\C(=O)O` (stereo not shown) [Perhexilline Maleate], the “hit class in primary screen” value in assay [1] is listed as “NSC Killers”.

For the compound `CNc1ccc2oc(C[C@H]3O[C@@]4(CC[C@H]3C)O[C@H]([C@H](C)C(=O)c3ccc[nH]3)[C@H](C)C[C@H]4C)nc2c1C(=O)O` [Calcimycin], the ESC/NSC in assay [1] (setting [3]) stood at 377.6.

With `CC[C@@]1(O)C(=O)OCc2c1cc1n(c2=O)Cc2cc3ccccc3nc2-1` [Camptothecine (S,+)], in assay [1] (setting [6]), the NSC/ESC was 14.46.

Take `C[n+]1cc2c3c(ccc2c2ccc4cc5c(cc4c21)OCO5)OCO3` [Sanguinarine]: the ESC/NSC in assay [1] (Prestwick screening data, […]) was 102.6.

With `CC(=O)Oc1ccc(C(c2ccc(OC(C)=O)cc2)c2ccccn2)cc1` [Bisacodyl], in assay [1] (setting [2]), the ESC/NSC is 2.701.

As to `[O-][n+]1ccccc1[S-].[O-][n+]1ccccc1[S-].[Zn+2]` [Pyrithione Zinc], in assay [1], the ESC/NSC is on record as 116.4.

Regarding `COc1cccc2c1C(=O)c1c(O)c3c(c(O)c1C2=O)C[C@@](O)(C(=O)CO)C[C@@H]3O[C@H]1C[C@H](N)[C@H](O)[C@H](C)O1` [Doxorubicin Hydrochloride], the NSC/ESC in assay [1] (setting [6]) is recorded as 8.906.

Take `CN(Cc1cnc2nc(N)nc(N)c2n1)c1ccc(C(=O)N[C@@H](CCC(=O)O)C(=O)O)cc1` (racemic) [Amethopterin (R,S)]: the ESC/NSC in assay [1] (setting [2]) is 6.45.

As to `CC1=CC(=O)c2ccccc2C1=O` [Menadione], in assay [1], the “hit class in primary screen” value is listed as “NSC Killers”. Also, the cytotoxicity in the assay with hESC-derived NSCs (setting [4]) was at least 15%. For the same compound, the “toxicity to NSCs (reduced ATP concentrations)” value with hESC-derived NSCs (retest) is recorded as “dose-dependent specific toxicity”.

For the compound `CCCCCCCCCCCCCCCC[n+]1ccccc1` [Cetylpyridinium Chloride], the ESC/NSC in assay [1] was 109.4.

Consider `CCCCC(CC)CN1CN(CC(CC)CCCC)CC(C)(N)C1` (stereo not shown) [Hexetidine], for which, in assay [1], the “hit class in primary screen” value is recorded as “NSC Killers”. The cytotoxicity with hESC-derived NSCs (setting [4]) was at least 15%.

As for `CN1CCN(CC(=O)N2c3ccccc3C(=O)Nc3cccnc32)CC1` [pirenzepine HCL], the “hit class in primary screen” value in assay [1] is “NSC Killers”. The cytotoxicity in the assay on hESC-derived NSCs (setting [4]) is at least 15%. Also, the “toxicity to NSCs (reduced ATP concentrations)” value in the assay with hESC-derived NSCs (retest) is given as “dose-dependent specific toxicity”.

In the case of Clofilium Tosylate, the NSC/ESC in assay [1] (setting [5]) was found to be 2.184.

For the compound `COc1cc(-c2ccc(=O)[nH]n2)ccc1OC(F)F` [Zardaverine], the NSC/ESC in assay [1] (setting [5]) is listed as 1.976.

In the case of `Fc1ccc(C(OCCN2CCN(CCCc3ccccc3)CC2)c2ccc(F)cc2)cc1` [Gbr 12909 Dihydrochloride], the NSC/ESC in assay [1] (setting [5]) is recorded as 1.754.

With `CC[N+]1(C)[C@@H]2CC[C@H]1CC(OC(=O)[C@@H]1CC[C@@](C(=O)OC3C[C@H]4CC[C@@H](C3)[N+]4(C)CC)(c3ccccc3)c3ccccc31)C2.[Cl-].[Cl-]` (stereo partly drawn) [Beta-Belladonnine Dichloroethylate], the NSC/ESC in assay [1] (setting [5]) is on record as 2.717.

Take `CCN(CC)C(=S)SSC(=S)N(CC)CC` [Disulfiram]: the NSC/ESC in assay [1] (setting [5]) is given as 10.3.

As for `CC[C@@H](C(=O)[C@@H](C)[C@@H](O)[C@H](C)CCc1ccc(C)c(O)c1C(=O)O)[C@H]1O[C@](CC)([C@H]2CC[C@](O)(CC)[C@H](C)O2)C[C@@H]1C` [Lasalocid Sodium Salt], the ESC/NSC in assay [1] (setting [2]) is 2.052.

With `Cc1ccnc(NS(=O)(=O)c2ccc(N)cc2)n1` [Sulfamerazine], in assay [1] (setting [5]), the NSC/ESC is 2.003.

Take `COc1ccc(CN(CCN(C)C)c2ccccn2)cc1` [Pyrilamine Maleate]: the NSC/ESC in assay [1] (setting [5]) was determined as 1.934.

For `COC(=O)Nc1nc2ccc(SC(C)C)cc2[nH]1` [Methiazole], the ESC/NSC in assay [1] (setting [2]) is 3.01.

As to `COc1ccc(C[C@H](N)C(=O)N[C@H]2[C@@H](O)[C@H](n3cnc4c(N(C)C)ncnc43)O[C@@H]2CO)cc1` [Puromycin Dihydrochloride], the NSC/ESC in assay [1] (setting [6]) is given as 10.84.

For the compound `CN1Cc2c(ccc3c2OCO3)C2C(O)Cc3cc4c(cc3C21)OCO4` (stereo not drawn) [Chelidonine (+)], in assay [1] (setting [2]), the ESC/NSC was 1.999.
